Laboratory results from the NIST ThermoML archive (doi:10.1021/je060271a).
± gives the expanded uncertainty stated by the source.

Conditions: 303.14 K, Liquid, Vibrating tube method

Molecule `CCCCCCC(=O)OCC(COC(=O)CCCCCC)(COC(=O)CCCCCC)COC(=O)CCCCCC` [pentaerythritol tetraheptanoate] has a mass density (163.7 kPa) of 970.9 ± 1.2 kg/m3, a mass density (201.8 kPa) of 970.9 ± 1.2 kg/m3 and a mass density (226 kPa) of 970.8 ± 1.2 kg/m3. For the same molecule, the mass density (241.8 kPa) was 970.9 ± 1.2 kg/m3, the mass density (250.8 kPa) was 970.9 ± 1.2 kg/m3 and the mass density (258.8 kPa) was 970.8 ± 1.2 kg/m3. It also gave a mass density (267.9 kPa) of 970.9 ± 1.2 kg/m3, a mass density (279.3 kPa) of 971 ± 1.2 kg/m3 and a mass density (289.8 kPa) of 970.8 ± 1.2 kg/m3. For the same molecule, the mass density (301.4 kPa) was 970.9 ± 1.2 kg/m3, the mass density (315.8 kPa) was 970.9 ± 1.2 kg/m3 and the mass density (328.9 kPa) was 970.9 ± 1.2 kg/m3. For the same molecule, the mass density (342.6 kPa) was 970.8 ± 1.2 kg/m3, the mass density (354.2 kPa) was 971 ± 1.2 kg/m3 and the mass density (366.8 kPa) was 970.9 ± 1.2 kg/m3. It also gave a mass density (380 kPa) of 971 ± 1.2 kg/m3, a mass density (397.2 kPa) of 971 ± 1.2 kg/m3 and a mass density (412.5 kPa) of 971 ± 1.2 kg/m3. The mass density (432.5 kPa) was 970.9 ± 1.2 kg/m3, the mass density (450.7 kPa) was 970.9 ± 1.2 kg/m3 and the mass density (470.3 kPa) was 971 ± 1.2 kg/m3. For the same molecule, the mass density (496.8 kPa) was 971 ± 1.2 kg/m3, the mass density (520.4 kPa) was 971.1 ± 1.2 kg/m3 and the mass density (547 kPa) was 971.1 ± 1.2 kg/m3. It also gave a mass density (581.4 kPa) of 970.9 ± 1.2 kg/m3, a mass density (613 kPa) of 971.2 ± 1.2 kg/m3 and a mass density (645.8 kPa) of 971.1 ± 1.2 kg/m3. It also gave a mass density (676.4 kPa) of 971.1 ± 1.2 kg/m3, a mass density (706.7 kPa) of 971.2 ± 1.2 kg/m3 and a mass density (734.4 kPa) of 971.2 ± 1.2 kg/m3. For the same molecule, the mass density (762.1 kPa) was 971.2 ± 1.2 kg/m3, the mass density (785 kPa) was 971.2 ± 1.2 kg/m3 and the mass density (807.4 kPa) was 971.1 ± 1.2 kg/m3. For the same molecule, the mass density (827.2 kPa) was 971.2 ± 1.2 kg/m3, the mass density (847.6 kPa) was 971.2 ± 1.2 kg/m3 and the mass density (869.1 kPa) was 971.2 ± 1.2 kg/m3. It also gave a mass density (895.8 kPa) of 971.3 ± 1.2 kg/m3, a mass density (919.6 kPa) of 971.2 ± 1.2 kg/m3 and a mass density (944.3 kPa) of 971.2 ± 1.2 kg/m3. For the same molecule, the mass density (969.8 kPa) was 971.3 ± 1.2 kg/m3, the mass density (1002.7 kPa) was 971.3 ± 1.2 kg/m3 and the mass density (1031.7 kPa) was 971.4 ± 1.2 kg/m3. The mass density (1063.1 kPa) was 971.4 ± 1.2 kg/m3, the mass density (1101.5 kPa) was 971.3 ± 1.2 kg/m3 and the mass density (1163.5 kPa) was 971.4 ± 1.2 kg/m3. For the same molecule, the mass density (1217.5 kPa) was 971.4 ± 1.2 kg/m3, the mass density (1278.3 kPa) was 971.6 ± 1.2 kg/m3 and the mass density (1312.2 kPa) was 971.5 ± 1.2 kg/m3. It also gave a mass density (1337.9 kPa) of 971.6 ± 1.2 kg/m3, a mass density (1347.4 kPa) of 971.5 ± 1.2 kg/m3 and a mass density (1357.1 kPa) of 971.5 ± 1.2 kg/m3. The mass density (1376.9 kPa) was 971.5 ± 1.2 kg/m3, the mass density (1461 kPa) was 971.6 ± 1.2 kg/m3 and the mass density (1578.5 kPa) was 971.7 ± 1.2 kg/m3. It also gave a mass density (1661.5 kPa) of 971.6 ± 1.2 kg/m3, a mass density (1692.7 kPa) of 971.7 ± 1.2 kg/m3 and a mass density (1725.9 kPa) of 971.9 ± 1.2 kg/m3. For the same molecule, the mass density (1765.8 kPa) was 971.8 ± 1.2 kg/m3, the mass density (1800.2 kPa) was 971.8 ± 1.2 kg/m3 and the mass density (1836.8 kPa) was 971.9 ± 1.2 kg/m3. It also gave a mass density (1873.8 kPa) of 971.9 ± 1.2 kg/m3, a mass density (1919.1 kPa) of 972 ± 1.2 kg/m3 and a mass density (1958.5 kPa) of 971.8 ± 1.2 kg/m3. For the same molecule, the mass density (2006.7 kPa) was 971.9 ± 1.2 kg/m3, the mass density (2049 kPa) was 972.1 ± 1.2 kg/m3 and the mass density (2092.9 kPa) was 971.9 ± 1.2 kg/m3. It also gave a mass density (2137.7 kPa) of 972.1 ± 1.2 kg/m3, a mass density (2193.4 kPa) of 972 ± 1.2 kg/m3 and a mass density (2240.2 kPa) of 972.1 ± 1.2 kg/m3. For the same molecule, the mass density (2293.3 kPa) was 972.3 ± 1.2 kg/m3, the mass density (2315.9 kPa) was 972.1 ± 1.2 kg/m3 and the mass density (2329.2 kPa) was 972.2 ± 1.2 kg/m3. The mass density (2344.7 kPa) was 972.2 ± 1.2 kg/m3, the mass density (2358.2 kPa) was 972.3 ± 1.2 kg/m3 and the mass density (2371.9 kPa) was 972.1 ± 1.2 kg/m3. It also gave a mass density (2388.4 kPa) of 972.3 ± 1.2 kg/m3, a mass density (2402.1 kPa) of 972.3 ± 1.2 kg/m3 and a mass density (2416.3 kPa) of 972.3 ± 1.2 kg/m3. The mass density (2433 kPa) was 972.3 ± 1.2 kg/m3, the mass density (2447.2 kPa) was 972.3 ± 1.2 kg/m3 and the mass density (2464.4 kPa) was 972.2 ± 1.2 kg/m3. For the same molecule, the mass density (2478.9 kPa) was 972.3 ± 1.2 kg/m3, the mass density (2494 kPa) was 972.2 ± 1.2 kg/m3 and the mass density (2508.9 kPa) was 972.2 ± 1.2 kg/m3. The mass density (2528 kPa) was 972.2 ± 1.2 kg/m3, the mass density (2539.8 kPa) was 972.2 ± 1.2 kg/m3 and the mass density (2558.1 kPa) was 972.4 ± 1.2 kg/m3. It also gave a mass density (2573.1 kPa) of 972.3 ± 1.2 kg/m3, a mass density (2592.1 kPa) of 972.3 ± 1.2 kg/m3 and a mass density (2607.7 kPa) of 972.4 ± 1.2 kg/m3. The mass density (2623.3 kPa) was 972.3 ± 1.2 kg/m3, the mass density (2639.6 kPa) was 972.3 ± 1.2 kg/m3 and the mass density (2658.8 kPa) was 972.5 ± 1.2 kg/m3. It also gave a mass density (2675.1 kPa) of 972.3 ± 1.2 kg/m3, a mass density (2691.8 kPa) of 972.4 ± 1.2 kg/m3 and a mass density (2711.7 kPa) of 972.4 ± 1.2 kg/m3. It also gave a mass density (2728.4 kPa) of 972.4 ± 1.2 kg/m3, a mass density (2745.4 kPa) of 972.5 ± 1.2 kg/m3 and a mass density (2766 kPa) of 972.5 ± 1.2 kg/m3. The mass density (2783.2 kPa) was 972.6 ± 1.2 kg/m3, the mass density (2800.7 kPa) was 972.5 ± 1.2 kg/m3 and the mass density (2821.5 kPa) was 972.6 ± 1.2 kg/m3. The mass density (2839.7 kPa) was 972.5 ± 1.2 kg/m3, the mass density (2857.4 kPa) was 972.6 ± 1.2 kg/m3 and the mass density (2879.2 kPa) was 972.5 ± 1.2 kg/m3. For the same molecule, the mass density (2897.6 kPa) was 972.5 ± 1.2 kg/m3, the mass density (2916.3 kPa) was 972.5 ± 1.2 kg/m3 and the mass density (2935.4 kPa) was 972.5 ± 1.2 kg/m3. It also gave a mass density (2957.6 kPa) of 972.5 ± 1.2 kg/m3, a mass density (2976.7 kPa) of 972.5 ± 1.2 kg/m3 and a mass density (2995.9 kPa) of 972.5 ± 1.2 kg/m3. It also gave a mass density (3019.1 kPa) of 972.7 ± 1.2 kg/m3.
